Measured values from US8314269B2, “N-(1-methyl-2phenylethyl)benzamide derivatives” (Bayer Cropscience AG, priority 2005, dated 2012).

Test system: Pyrenophora teres
Assay: In vivo test on Pyrenophora teres (barley net blotch)
Details: 500 ppm, preventive spray on barley plants (Express), grading 12 days after contamination vs control plants
Method: The active ingredients tested are prepared by homogenisation in a mixture of acetone/tween/DMSO, then diluted with water to obtain the desired active material concentration.
Barley plants (Express variety), sown on a 50/50 peat soil-pozzolana substrate in starter cups and grown at 12° C., are treated at the 1-leaf stage (10 cm tall) by spraying with the active ingredient prepared as described above. Plants, used as controls, are treated with the mixture of acetone/tween/DMSO/water not containing the active material.
After 24 hours, the plants are contaminated by spraying them with an aqueous suspension of Pyrenophora teres spores (12,000 spores per ml). The spores are collected from a 12-day-old culture. The contaminated barley plants are incubated for 24 hours at about 20° C. and at 100% relative humidity, and then for 12 days at 80% relative humidity.
Grading is carried out 12 days after the contamination, in comparison with the control plants.

In the case of CC(Cc1ccc(Cl)cc1)NC(=O)c1ccccc1C(F)(F)F (stereo not shown) [Compound 1], the protection is reported as “at least 70%”.
